PMC6389506 (Cell chemical biology, 2017)

Columns and labels:
CDK9 [1] = target: T1, CDK9 (Homo sapiens, UniProt P50750); test: biochemical kinase inhibition
CDK2 = CDK2 (Homo sapiens, UniProt P24941); test: biochemical kinase inhibition
CDK7 = CDK7 (Homo sapiens, UniProt P50613); test: biochemical kinase inhibition
CDK9 [2] = target: T1, CDK9; test: KINOMEscan profiling / biochemical kinase assay
CDK12 = CDK12 (Homo sapiens, UniProt Q9NYV4); test: CE-MS intact mass shift and MS/MS of the labeled peptide; format: cell-based
Sequence of CDK12 (Q9NYV4 whole entry): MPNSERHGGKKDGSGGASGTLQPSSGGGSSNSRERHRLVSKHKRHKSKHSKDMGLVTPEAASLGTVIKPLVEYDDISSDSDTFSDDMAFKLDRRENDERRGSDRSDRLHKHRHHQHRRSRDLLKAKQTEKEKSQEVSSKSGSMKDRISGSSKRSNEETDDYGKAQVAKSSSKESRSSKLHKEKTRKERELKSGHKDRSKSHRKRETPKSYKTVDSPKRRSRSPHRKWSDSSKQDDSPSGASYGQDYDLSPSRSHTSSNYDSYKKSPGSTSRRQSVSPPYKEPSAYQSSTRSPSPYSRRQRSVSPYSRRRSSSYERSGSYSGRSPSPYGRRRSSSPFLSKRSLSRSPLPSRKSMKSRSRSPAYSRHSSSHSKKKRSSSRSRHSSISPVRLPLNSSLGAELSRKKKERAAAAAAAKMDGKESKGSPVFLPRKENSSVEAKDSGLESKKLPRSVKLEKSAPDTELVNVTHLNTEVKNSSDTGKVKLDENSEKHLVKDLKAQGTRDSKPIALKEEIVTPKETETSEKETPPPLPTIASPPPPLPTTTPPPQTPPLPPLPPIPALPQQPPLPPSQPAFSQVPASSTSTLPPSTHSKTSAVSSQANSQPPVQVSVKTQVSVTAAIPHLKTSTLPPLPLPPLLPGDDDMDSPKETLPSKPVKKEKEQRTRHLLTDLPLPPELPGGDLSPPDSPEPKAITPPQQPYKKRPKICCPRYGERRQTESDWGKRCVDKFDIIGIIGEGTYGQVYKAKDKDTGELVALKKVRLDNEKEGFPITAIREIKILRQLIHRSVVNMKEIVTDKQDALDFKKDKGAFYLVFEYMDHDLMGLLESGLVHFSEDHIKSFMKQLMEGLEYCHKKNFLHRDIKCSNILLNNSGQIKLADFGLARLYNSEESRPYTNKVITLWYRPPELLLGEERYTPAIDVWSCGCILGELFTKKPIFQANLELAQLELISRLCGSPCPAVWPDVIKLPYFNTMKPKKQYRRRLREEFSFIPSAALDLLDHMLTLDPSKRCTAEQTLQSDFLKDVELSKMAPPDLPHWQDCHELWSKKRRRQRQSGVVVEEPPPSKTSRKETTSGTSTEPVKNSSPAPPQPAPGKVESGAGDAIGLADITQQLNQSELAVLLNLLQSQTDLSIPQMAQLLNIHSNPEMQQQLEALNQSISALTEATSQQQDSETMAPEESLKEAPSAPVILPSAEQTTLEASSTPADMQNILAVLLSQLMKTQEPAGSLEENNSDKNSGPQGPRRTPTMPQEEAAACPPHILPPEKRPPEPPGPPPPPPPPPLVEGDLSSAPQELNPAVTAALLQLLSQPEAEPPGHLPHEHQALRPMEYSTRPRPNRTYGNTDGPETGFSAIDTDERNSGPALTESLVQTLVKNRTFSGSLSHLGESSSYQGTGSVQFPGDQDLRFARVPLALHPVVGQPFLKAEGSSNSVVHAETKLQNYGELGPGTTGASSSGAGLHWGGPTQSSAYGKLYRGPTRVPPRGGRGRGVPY
Sequence of CDK12 (O75909 whole entry partner): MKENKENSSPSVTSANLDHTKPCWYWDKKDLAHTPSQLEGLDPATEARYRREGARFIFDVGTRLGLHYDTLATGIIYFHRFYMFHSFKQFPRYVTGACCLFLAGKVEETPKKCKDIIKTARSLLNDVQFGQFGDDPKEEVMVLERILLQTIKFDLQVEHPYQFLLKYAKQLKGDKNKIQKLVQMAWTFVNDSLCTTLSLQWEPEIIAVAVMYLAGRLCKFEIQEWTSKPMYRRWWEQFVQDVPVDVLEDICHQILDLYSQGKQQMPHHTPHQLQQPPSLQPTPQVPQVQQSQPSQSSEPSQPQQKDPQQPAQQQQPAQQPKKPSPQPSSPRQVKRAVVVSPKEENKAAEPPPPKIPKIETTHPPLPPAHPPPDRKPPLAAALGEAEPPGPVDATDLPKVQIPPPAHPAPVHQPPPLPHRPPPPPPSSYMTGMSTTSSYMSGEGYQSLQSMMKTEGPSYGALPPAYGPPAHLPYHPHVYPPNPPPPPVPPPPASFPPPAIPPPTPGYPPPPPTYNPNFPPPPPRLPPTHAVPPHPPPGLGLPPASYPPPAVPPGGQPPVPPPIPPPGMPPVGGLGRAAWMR

T1 sequence (P50750 whole entry): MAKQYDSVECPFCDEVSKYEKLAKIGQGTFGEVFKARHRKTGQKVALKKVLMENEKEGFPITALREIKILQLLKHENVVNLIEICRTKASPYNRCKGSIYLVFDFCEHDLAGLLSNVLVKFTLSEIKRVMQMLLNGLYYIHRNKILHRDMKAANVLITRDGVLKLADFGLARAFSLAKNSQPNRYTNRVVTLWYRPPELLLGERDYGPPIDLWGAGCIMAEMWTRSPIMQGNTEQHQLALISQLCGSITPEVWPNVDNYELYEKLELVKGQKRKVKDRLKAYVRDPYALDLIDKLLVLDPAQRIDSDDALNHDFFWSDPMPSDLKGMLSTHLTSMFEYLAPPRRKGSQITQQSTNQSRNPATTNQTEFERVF
Sequence of CDK7 (P50613 2-346): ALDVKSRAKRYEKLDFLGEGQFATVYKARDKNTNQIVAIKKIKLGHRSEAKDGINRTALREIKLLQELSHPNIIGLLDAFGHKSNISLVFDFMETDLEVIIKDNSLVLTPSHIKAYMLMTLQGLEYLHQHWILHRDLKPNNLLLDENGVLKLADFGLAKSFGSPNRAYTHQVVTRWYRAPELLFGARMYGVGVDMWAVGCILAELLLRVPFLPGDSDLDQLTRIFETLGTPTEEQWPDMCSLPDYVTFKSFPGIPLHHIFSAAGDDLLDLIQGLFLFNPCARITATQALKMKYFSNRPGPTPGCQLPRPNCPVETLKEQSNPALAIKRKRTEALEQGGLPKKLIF
Sequence of CDK7 (P51946 whole entry partner): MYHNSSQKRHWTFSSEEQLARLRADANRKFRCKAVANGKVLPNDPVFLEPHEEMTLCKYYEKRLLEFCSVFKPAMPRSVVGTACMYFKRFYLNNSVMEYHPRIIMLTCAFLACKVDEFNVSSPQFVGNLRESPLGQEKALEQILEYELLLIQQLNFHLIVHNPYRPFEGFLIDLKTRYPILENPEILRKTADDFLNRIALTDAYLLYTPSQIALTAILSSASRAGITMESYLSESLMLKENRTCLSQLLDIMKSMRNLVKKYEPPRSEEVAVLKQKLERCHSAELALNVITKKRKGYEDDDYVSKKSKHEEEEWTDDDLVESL

| Structure (SMILES) | biochemical kinase inhibition (CDK9 [1]) | biochemical kinase inhibition (CDK2) | biochemical kinase inhibition (CDK7) | KINOMEscan profiling / biochemical kinase assay (CDK9 [2]) | CE-MS intact mass shift and MS/MS of the labeled peptide; bio-THZ1 competition p (CDK12) [nM] |
| --- | --- | --- | --- | --- | --- |
| CCC(=O)Nc1cccc(Nc2cc(N3CCCC[C@H]3CCO)nc3c(CC)cnn23)c1 [E9-R, (S)-N-(3-((3-Ethyl-5-(2-(2-Hydroxyethyl)piperidin-1-yl)pyrazolo[1,5-a]pyrimidin-7-yl)amino)phenyl)propionamide] | E9-R exhibited improved biochemical inhibition of CDK2, CDK7, and CDK9 compared with E9 | E9-R exhibited improved biochemical inhibition of CDK2, CDK7, and CDK9 compared with E9 | E9-R exhibited improved biochemical inhibition of CDK2, CDK7, and CDK9 compared with E9 |  |  |
| C=CC(=O)Nc1cccc(Nc2cc(N3CCCC[C@H]3CCO)nc3c(CC)cnn23)c1 [E9, (S)-N-(3-(3-Ethyl-5-(2-(2-Hydroxyethyl)piperidin-1-yl)pyrazolo[1,5-a]pyrimidin-7-ylamino)phenyl)acrylamide] |  |  |  | E9 still retained fairly strong biochemical activity against CDK9 | < 25 |
